Values of other authors as cited in US20070207193A1, “Novel application of topical anesthetics for modulation of neurogenic tremor” (priority 2006, published 2007).

Key:
Parkinsonian tremor = conditions: ten patients undergoing stereotactic thalamotomy
subthalamic nucleus = conditions: applied centrally in the subcortical areas of the brain

CCN(CC)CC(=O)Nc1c(C)cccc1C [lidocaine]
cases in which microinjection replicated the effects of microstimulation (Parkinsonian tremor): ⅔ | effect on tremor (subthalamic nucleus): ameliorated tremor
